According to PMC6522510 (Nature Communications, 2019):
Where two headings read alike, the source gives them in different places.

Legend:
Set-up in all cases: species or system AML cell lines (8); Primary HTS, single concentration about 10 uM, Cell Titer Glo viability; log10 luminescence, per cent inhibition relative to cycloheximide control
Details in all cases: 72 h, inhibitor
CMK = test system: CMK
MOLM-13 = test system: MOLM-13
CMS = test system: CMS
ML-2 = test system: ML-2
MV4-11 = test system: MV4-11
U937 = test system: U937
M07e = test system: M07e
CHRF288-11 = test system: CHRF288-11
[1] = relative to cycloheximide control, log10 luminescence

SMILES	CMK %inh (CMK; [1])	MOLM-13 %inh (MOLM-13; [1])	CMS %inh (CMS; [1])	ML-2 %inh (ML-2; [1])	MV4-11 %inh (MV4-11; [1])	U937 %inh (U937; [1])	M07e %inh (M07e; [1])	CHRF288-11 %inh (CHRF288-11; [1])	CMK %inh (CMK; 10 µM)	MOLM-13 %inh (MOLM-13; 10 µM)	CMS %inh (CMS; 10 µM)	ML-2 %inh (ML-2; 10 µM)	MV4-11 %inh (MV4-11; 10 µM)	U937 %inh (U937; 10 µM)	M07e %inh (M07e; 10 µM)	CHRF288-11 %inh (CHRF288-11; 10 µM)
COC(=O)Nc1nc2cc(Oc3cccc(NC(=O)Nc4cc(C(F)(F)F)ccc4F)c3)ccc2[nH]1 [SJ000573299-1, T261/2/3]	4.931%	2.873%	-1.053%	-3.985%	1.052%	-3.556%	-5.089%	-6.517%								
COc1cc(N2CCN(C(C)C)CC2)ccc1Nc1nc(Nc2cccc3ncccc23)c2cc[nH]c2n1 [SJ000573300-1, U24088/12/1]	79.69%	33.94%	0.4893%	8.95%	11.79%	16.14%	3.774%	47.23%								
COc1cc(N2CCN(C(C)C)CC2)ccc1Nc1nc(Nc2ccc(F)cc2C(=O)NC[C@@H](O)CO)c2cc[nH]c2n1 [SJ000573301-1, U23662/84/1]	-2.061%	61.15%	-0.165%	23.23%	49.16%	47.45%	18.85%	7.394%								
COc1cc(N2CCN(C(C)C)CC2)ccc1Nc1nc(Nc2cccc(F)c2C(=O)O)c2cc[nH]c2n1 [SJ000573302-1, U24644/141/1]	-4.539%	-2.196%	-1.742%	1.383%	-1.676%	-3.308%	1.407%	2.245%								
NS(=O)(=O)c1ccc(Nc2ncc(-c3ccccc3)o2)cc1 [SJ000573303-1, U14961/32/1]									30.97%	74.24%	6.689%	4.386%	64.71%	6.622%	5.73%	3.992%
CN1CCN(CCCNc2nc3ccc(Oc4ccc(NC(=O)Nc5cc(C(F)(F)F)ccc5F)cc4)cc3[nH]2)CC1 [SJ000573304-1, T278/35/2]	2.938%	79.64%	2.836%	1.341%	57.09%	2.101%	5.692%	-0.361%								
COc1cccc(COc2cc(-n3cnc4ccccc43)sc2C(N)=O)c1 [SJ000573305-1, U17845/44/3]	1.494%	4.701%	2.005%	3.033%	0.1016%	5.488%	2.73%	7.099%								
CNC(=O)c1sc(-n2cnc3cc(OC)c(OC)cc32)cc1OCc1ccccc1C(F)(F)F [SJ000573306-1, U22436/130/1]	19.06%	15.4%	0.3871%	3.023%	7.836%	5.347%	-3.893%	8.101%								
COc1cc2ncn(-c3cc(OCc4ccccc4C(F)(F)F)c(C(=O)N(C)C)s3)c2cc1OC [SJ000573307-1, U22436/129/1]	4.289%	15.46%	-4.162%	-1.707%	8.508%	7.074%	-4.272%	2.061%								
COC(=O)c1sc(-n2cnc3cc(OC)c(OC)cc32)cc1OCc1ccccc1C(F)(F)F [SJ000573308-1, U22436/119/1]	0.3974%	-0.8474%	4.6%	-1.915%	-1.071%	29.63%	0.7415%	-2.151%								
O=C1Nc2ccccc2C1=C1CCc2cc(O)ccc21 [SJ000573309-1, C1338/186/2]	25.36%	102.5%	4.291%	4.662%	57.39%	12.06%	0.9027%	18.33%								
Nc1nccc(C#Cc2cncnc2Nc2ccc(OCc3cccc(F)c3)c(Cl)c2)n1 [SJ000573310-1, U16767/158/1]	11.36%	9.977%	85.29%	58.71%	82.16%	80.64%	42.98%	34.34%								
COc1cc(Nc2ncc3c(C)nc(-c4cccc(C(F)(F)F)c4)n3n2)cc(OC)c1OC [SJ000573311-1, U19240/54/1]	13.06%	85.98%	21.85%	7.183%	65.83%	12.36%	19.43%	12.88%								
CCn1c(-c2nonc2N)nc2c(C#CC(C)(C)O)nc(OC[C@@H](N)c3ccccc3)cc21 [SJ000573312-1, LS204454-145A1 | LS204454-146A1]	11.49%	19.15%	24.21%	7.922%	7.841%	37.57%	29.99%	122.3%								
CCn1c(-c2nonc2N)nc2c(C#CC(C)(C)O)nc(OC[C@H](N)c3ccccc3)cc21 [SJ000573312-2, LS204454-145A1 | LS204454-146A1]	111.5%	14.91%	42.42%	28.64%	22.87%	44.96%	46.62%	83.17%								
CCn1c(-c2nonc2N)nc2c(C#CC(C)(C)O)nc(OCCNC)cc21 [SJ000573313-1, MS205583-134A1]	13.56%	19.98%	10.14%	3.569%	55.12%	64.14%	22.08%	6.621%								
CCn1c(-c2nonc2N)nc2c(C#CC(C)(C)O)nc(CN3CCCC3)cc21 [SJ000573314-1, MR206418-021A1]	2.979%	-1.58%	3.945%	-0.4194%	2.964%	4.345%	-3.096%	4.422%								
NS(=O)(=O)c1ccc(Nc2cc(-c3ccc(O)c(F)c3)n[nH]2)cc1 [SJ000573315-1, T350/112/30]	-1.653%	77.64%	-2.048%	0.5816%	53.96%	0.1443%	-0.4073%	-4.039%								
N#Cc1c(NC(=O)CN2CCOCC2)sc2c1CCCC2 [SJ000573317-1, ST/830472]	-5.985%	-0.7057%	0.5199%	1.88%	-2.657%	3.525%	3.047%	1.546%								
c1cnn2ncc(-c3ccnc(Nc4ccc5c(c4)OCCO5)n3)c2c1 [SJ000573318-1, U18020/87/1]	109.1%	99.59%	106%	59.44%	79.44%	81.34%	112.6%	71.61%								
COc1cc(Nc2nccc(Nc3ccc4c(C)n[nH]c4c3)n2)cc(OC)c1OC [SJ000573319-1, U17574/67/1]	114.1%	98.77%	87.58%	29.66%	77.98%	62.59%	71.44%	80.56%								
CCn1cc(-c2ccnc3[nH]ccc23)c(-c2cccc(NC(=O)Nc3ccc(OCc4ccccc4)cc3)c2)n1 [SJ000573320-1, R11459/78/21]	77.69%	71.46%	4.452%	18.08%	7.18%	1.634%	13.09%	55.15%								
